Source: ChEMBL document CHEMBL1134488, “Potent reversible inhibitors of the protein tyrosine phosphatase CD45” (J Med Chem, 2001)
Where a SMILES comes first, the peptide text is derived from it. The star is where a group is joined. Phenanthrenequinone2carbonyl = O=C1C(=O)c2cc(C(=O)*)ccc2-c2ccccc21; 3Phenanthroyl(9,10-dioxo) = O=C1C(=O)c2ccc(C(=O)*)cc2-c2ccccc21; X1 = O=C1C(=O)c2cc(N*)ccc2-c2ccccc21

Columns and labels:
[1] = test system: T-cell; assay: Cytotoxicity measured against human T-cells; assay type: functional
[2] = test system: T-cell; assay: In vitro inhibition of human T-cell proliferation; assay type: functional, cell-based

SMILES | CC50 [1] [µM] | IC50 [2] [µM]
NC(=O)CC[C@H](NC(=O)CNC(=O)c1ccc2c(c1)-c1ccccc1C(=O)C2=O)C(=O)NCC(=O)N[C@@H](CCC(N)=O)C(=O)N1CCC[C@H]1C(=O)O ({3Phenanthroyl(9,10-dioxo)}-GQGQP-OH) | > 30 | 20
O=C1C(=O)c2ccsc2-c2ccccc21 | 3.5 | 
COC(=O)c1cccc2c1C=CC(=O)C2=O | > 30 | 
O=C(O)CC[C@H](NC(=O)[C@@H]1CCCN1C(=O)CNC(=O)CNC(=O)c1ccc2c(c1)C(=O)C(=O)c1ccccc1-2)C(=O)NCC(=O)O (Phenanthrenequinone2carbonyl-GGPEG-OH) | > 30 | 19.3
CCCC(=O)Nc1ccc2c(c1)C(=O)C(=O)c1ccccc1-2 | 8.2 | 1.1
NC(=O)CC[C@H](NC(=O)CNC(=O)[C@H](CCC(=O)O)NC(=O)CNC(=O)c1ccc2c(c1)-c1ccccc1C(=O)C2=O)C(=O)N1CCC[C@H]1C(=O)O ({3Phenanthroyl(9,10-dioxo)}-GEGQP-OH) | > 30 | 10.5
N=C(N)NCCC[C@H](NC(=O)[C@@H]1CCCN1C(=O)[C@H](CCC(=O)O)NC(=O)CNC(=O)c1ccc2c(c1)C(=O)C(=O)c1ccccc1-2)C(=O)NCC(=O)O (Phenanthrenequinone2carbonyl-GEPRG-OH) | > 30 | 20
Cc1ccc(S(=O)(=O)Nc2ccc3c(c2)C(=O)C(=O)c2ccccc2-3)cc1 | > 30 | 6.4
O=C1C(=O)c2ncccc2-c2ccccc21 | 7 | 0.4
O=C1C=Cc2cc(C(=O)c3ccccc3)ccc2C1=O | > 30 | 11
C=CCOC1=CC(=O)C(=O)c2ccccc21 | > 30 | > 30
O=C1C=C(c2ccc(Br)cc2)c2ccccc2C1=O | 3 | 0.2
O=C1C=C(c2c(-c3ccccc3)[nH]c3ccccc23)c2ccccc2C1=O | 16 | 2.2
NC(=O)CC[C@H](NC(=O)c1ccc2c(c1)-c1ccccc1C(=O)C2=O)C(=O)N[C@@H](CCC(N)=O)C(=O)NCC(=O)N[C@@H](CCC(N)=O)C(=O)N1CCC[C@H]1C(=O)O ({3Phenanthroyl(9,10-dioxo)}-QQGQP-OH) | > 30 | 14.5
Cn1cc(C2=CC(=O)C(=O)c3ccccc32)c2ccccc21 | > 30 | 1.5
O=C(O)CNC(=O)c1ccc2c(c1)-c1ccccc1C(=O)C2=O | > 30 | 6.5
Cc1ccc(S(=O)(=O)N(c2ccc3c(c2)C(=O)C(=O)c2ccccc2-3)S(=O)(=O)c2ccc(C)cc2)cc1 | 5.3 | 
NC(=O)CC[C@H](NC(=O)[C@@H]1CCCN1C(=O)[C@H](CCC(N)=O)NC(=O)[C@H](CCC(=O)O)NC(=O)c1ccc2c(c1)-c1ccccc1C(=O)C2=O)C(=O)N1CCC[C@H]1C(=O)O ({3Phenanthroyl(9,10-dioxo)}-EQPQP-OH) | > 30 | > 30
O=C1C=C(c2ccccc2)c2ccccc2C1=O | 12 | 0.2

SMILES | CC50 [1] [µM] | IC50 [2] [µM]
CC(=O)N[C@H](C(=O)N[C@@H](C)C(=O)N[C@H](C(=O)N[C@@H](CCC(=O)O)C(=O)NCC(=O)N[C@@H](CCC(N)=O)C(=O)N[C@@H](CC(=O)Nc1ccc2c(c1)C(=O)C(=O)c1ccccc1-2)C(=O)O)[C@@H](C)O)[C@@H](C)O (Ac-TATEGQD(X1)-OH) |  | 23
NC(=O)CC[C@H](NC(=O)[C@@H]1CCCN1C(=O)[C@H](CCC(=O)O)NC(=O)CNC(=O)c1ccc2c(c1)-c1ccccc1C(=O)C2=O)C(=O)N1CCC[C@H]1C(=O)O ({3Phenanthroyl(9,10-dioxo)}-GEPQP-OH) | > 30 | > 30
N=C(N)NCCC[C@H](NC(=O)[C@@H]1CCCN1C(=O)[C@H](CCCNC(=N)N)NC(=O)CNC(=O)c1ccc2c(c1)C(=O)C(=O)c1ccccc1-2)C(=O)NCC(=O)O (Phenanthrenequinone2carbonyl-GRPRG-OH) | > 30 | > 30
O=C1C(=O)c2cc(-c3ccc4c(c3)OCO4)ccc2-c2ccccc21 | 5 | 1.7
O=C1C(=O)c2ccc([N+](=O)[O-])cc2-c2ccccc21 | 2.8 | 0.2
O=C1C(=O)c2cc(-c3ccsc3)ccc2-c2ccccc21 | 7.3 | 1.7
NC(=O)CC[C@H](NC(=O)c1ccc2c(c1)-c1ccccc1C(=O)C2=O)C(=O)N[C@@H](CCC(=O)O)C(=O)NCC(=O)N[C@@H](CCC(N)=O)C(=O)N1CCC[C@H]1C(=O)O ({3Phenanthroyl(9,10-dioxo)}-QEGQP-OH) | > 30 | 16
N=C(N)NCCC[C@H](NC(=O)[C@@H]1CCCN1C(=O)CNC(=O)CNC(=O)c1ccc2c(c1)C(=O)C(=O)c1ccccc1-2)C(=O)NCC(=O)O (Phenanthrenequinone2carbonyl-GGPRG-OH) | > 30 | 16
O=C(O)c1ccc2c(c1)-c1ccccc1C(=O)C2=O |  | > 30
NC(=O)CC[C@H](NC(=O)[C@H](CCC(=O)O)NC(=O)c1ccc2c(c1)-c1ccccc1C(=O)C2=O)C(=O)NCC(=O)N[C@@H](CCC(N)=O)C(=O)N1CCC[C@H]1C(=O)O ({3Phenanthroyl(9,10-dioxo)}-EQGQP-OH) | > 30 | 7
N=C(N)NCCC[C@H](NC(=O)CNC(=O)c1ccc2c(c1)C(=O)C(=O)c1ccccc1-2)C(=O)N1CCC[C@H]1C(=O)N[C@@H](CCC(=O)O)C(=O)NCC(=O)O (Phenanthrenequinone2carbonyl-GRPEG-OH) | > 30 | 5.5
CC(=O)N[C@@H](C)C(=O)N[C@H](C(=O)N[C@@H](CCC(=O)O)C(=O)NCC(=O)N[C@@H](CCC(N)=O)C(=O)N[C@@H](CC(=O)Nc1ccc2c(c1)C(=O)C(=O)c1ccccc1-2)C(=O)O)[C@@H](C)O (Ac-ATEGQD(X1)-OH) |  | 21.4
N=C(N)NCCC[C@H](NC(=O)[C@H](CCC(=O)O)NC(=O)c1ccc2c(c1)C(=O)C(=O)c1ccccc1-2)C(=O)N1CCC[C@H]1C(=O)N[C@@H](CCC(=O)O)C(=O)NCC(=O)O (Phenanthrenequinone2carbonyl-ERPEG-OH) | > 30 | 3
O=C(O)CC[C@H](NC(=O)[C@@H]1CCCN1C(=O)[C@H](CCC(=O)O)NC(=O)CNC(=O)c1ccc2c(c1)C(=O)C(=O)c1ccccc1-2)C(=O)NCC(=O)O (Phenanthrenequinone2carbonyl-GEPEG-OH) | > 30 | 9
COC(=O)CCC(=O)Nc1ccc2c(c1)-c1ccccc1C(=O)C2=O | 18 | 
O=C(O)c1ccc2c(c1)C(=O)C(=O)c1ccccc1-2 | > 30 | > 30
NC(=O)CC[C@H](NC(=O)CNC(=O)c1ccc2c(c1)-c1ccccc1C(=O)C2=O)C(=O)NCC(=O)N[C@@H](CCC(=O)O)C(=O)N1CCC[C@H]1C(=O)O ({3Phenanthroyl(9,10-dioxo)}-GQGEP-OH) | > 30 | > 30
Nc1cccc2c1C(=O)C(=O)c1ccccc1-2 | 9.6 | 7.8
NC(=O)CC[C@H](NC(=O)c1ccc2c(c1)-c1ccccc1C(=O)C2=O)C(=O)N[C@@H](CCC(N)=O)C(=O)N1CCC[C@H]1C(=O)N[C@@H](CCC(N)=O)C(=O)N1CCC[C@H]1C(=O)O ({3Phenanthroyl(9,10-dioxo)}-QQPQP-OH) | > 30 | > 30

SMILES | CC50 [1] [µM] | IC50 [2] [µM]
O=C(O)CC[C@H](NC(=O)c1ccc2c(c1)C(=O)C(=O)c1ccccc1-2)C(=O)N[C@@H](CCC(=O)O)C(=O)N1CCC[C@H]1C(=O)N[C@@H](CCC(=O)O)C(=O)NCC(=O)O (Phenanthrenequinone2carbonyl-EEPEG-OH) | > 30 | 14.2
Nc1cccc2c1-c1ccccc1C(=O)C2=O | 9 | 0.2
O=C1C=C(Br)c2ccccc2C1=O | > 30 | 22
O=C1C=C(c2cc(Cl)cc(Cl)c2)c2ccccc2C1=O | 5.5 | 0.3
COC(=O)c1ccc2c(c1)C=CC(=O)C2=O | > 30 | 7.1
O=C1C(=O)c2ccc(NC(=O)c3ccccc3C(F)(F)F)cc2-c2ccccc21 | 14 | 
N=C(N)NCCC[C@H](NC(=O)c1ccc2c(c1)C(=O)C(=O)c1ccccc1-2)C(=O)NCC(=O)N1CCC[C@H]1C(=O)N[C@@H](CCCNC(=N)N)C(=O)NCC(=O)O (Phenanthrenequinone2carbonyl-RGPRG-OH) | > 30 | 14
O=C1C=C(c2ccccc2Cl)c2ccccc2C1=O | 12.4 | 0.3
CCOc1ccccc1-c1ccc2c(c1)C(=O)C(=O)c1ccccc1-2 | > 30 | 0.7
COC(=O)CCCC(=O)Nc1ccc2c(c1)-c1ccccc1C(=O)C2=O | 9 | 1.6
O=C1C(=O)c2cccc([N+](=O)[O-])c2-c2ccccc21 | 10 | 
N=C(N)NCCC[C@H](NC(=O)[C@@H]1CCCN1C(=O)CNC(=O)[C@H](CCC(=O)O)NC(=O)c1ccc2c(c1)C(=O)C(=O)c1ccccc1-2)C(=O)NCC(=O)O (Phenanthrenequinone2carbonyl-EGPRG-OH) | > 30 | 23
O=C1C(=O)c2cc([N+](=O)[O-])ccc2-c2ccccc21 | 10 | 1.6
O=C1C(=O)c2cc([N+](=O)[O-])ccc2-c2ccc([N+](=O)[O-])cc21 | 8 | 0.5
CCOC1=CC(=O)C(=O)c2ccccc21 | > 30 | > 30
NC(=O)CC[C@H](NC(=O)c1ccc2c(c1)-c1ccccc1C(=O)C2=O)C(=O)N[C@@H](CCC(=O)O)C(=O)N1CCC[C@H]1C(=O)N[C@@H](CCC(N)=O)C(=O)N1CCC[C@H]1C(=O)O ({3Phenanthroyl(9,10-dioxo)}-QEPQP-OH) | > 30 | 5
NC(=O)CC[C@H](NC(=O)[C@@H]1CCCN1C(=O)[C@H](CCC(N)=O)NC(=O)CNC(=O)c1ccc2c(c1)-c1ccccc1C(=O)C2=O)C(=O)N1CCC[C@H]1C(=O)O ({3Phenanthroyl(9,10-dioxo)}-GQPQP-OH) | > 30 | > 30
CC(=O)N[C@@H](Cc1ccccc1)C(=O)N[C@H](C(=O)N[C@@H](C)C(=O)N[C@H](C(=O)N[C@@H](CCC(=O)O)C(=O)NCC(=O)N[C@@H](CCC(N)=O)C(=O)N[C@@H](CC(=O)Nc1ccc2c(c1)C(=O)C(=O)c1ccccc1-2)C(=O)O)[C@@H](C)O)[C@@H](C)O (Ac-FTATEGQD(X1)-OH) |  | > 30
Nc1ccc2c(c1)-c1ccccc1C(=O)C2=O | 17 | 
